Among the data in DBAASP are MIC values, retold here.

Converted amounts (≈) assume the structure as drawn. Bounds are passed on as bounds.

Among the test systems are Staphylococcus aureus; Pseudomonas aeruginosa; Escherichia coli B; Bacillus subtilis 168; Escherichia coli UB1005; Acinetobacter baumannii; Klebsiella pneumoniae.
Holding throughout (assay): ≥ marks a high value that may be exact or a test limit, other limits are often not marked, values filed in µg/mL are converted to µM
Assay [1] relates to Staphylococcus aureus NCTC 8325.
Assay [2] has as its system Escherichia coli ATCC 25922.
For assay [3], the system named is Staphylococcus epidermidis ATCC 12228.
Assay [4] has as its system Staphylococcus aureus ATCC 29213.
Assay [5] relates to Staphylococcus aureus ATCC 25923.
For assay [6], the system named is Salmonella enterica subsp. enterica serovar Typhimurium C77-31.
Assay [7] has as its system Salmonella enterica subsp. enterica serovar Typhimurium ATCC 14028.
Assay [8] deals with Pseudomonas aeruginosa ATCC 27853.
Assay [9] concerns Staphylococcus aureus ATCC 43300.
The subject of assay [10] is Klebsiella pneumoniae ATCC 13883.

A word on the MIC: it is the smallest concentration in the dilution series that meets the test's criterion for growth inhibition. A higher MIC goes with weaker potency. For `CC[C@H](C)[C@@H]1NC(=O)[C@H](CC(C)C)NC(=O)[C@@H](NC(=O)[C@@H](NC(=O)[C@H](Cc2ccccc2)NC(=O)[C@H](CCCCN)NC(=O)[C@@H]2CCCN2C(=O)[C@@H](NC(=O)[C@H](CCSC)NC(=O)[C@H](CO)NC(=O)[C@H](C)NC(=O)[C@H](C)NC(=O)[C@H](CC(C)C)NC(=O)CNC(=O)[C@H](C)NC(=O)[C@H](CC(C)C)NC(=O)[C@H](CCSC)NC(=O)[C@@H]2CCCN2C(=O)[C@H](CC(C)C)NC(=O)[C@@H](N)Cc2ccccc2)C(C)C)C(C)C)CSSC[C@@H](C(=O)O)NC(=O)[C@H](CCCCN)NC(=O)[C@H](CCCCN)NC(=O)[C@H]([C@@H](C)O)NC1=O` [FLPMLAGLAASMVPKFVCLITKKC], the figures for the MIC in [1] and in assay [2] were 8 µM (≈ 20.6 µg/mL) and 16 µM (≈ 41.3 µg/mL), respectively.
Taken in the same sequence, the figures for `CC[C@H](C)[C@H](NC(=O)CNC(=O)[C@H](CO)NC(=O)[C@H](CC(C)C)NC(=O)[C@H](CC(C)C)NC(=O)[C@H](CCCCN)NC(=O)CNC(=O)[C@@H](NC(=O)[C@@H](NC(=O)[C@@H]1CCCN1C(=O)[C@H](CC(C)C)NC(=O)[C@@H](NC(=O)[C@@H](NC(=O)[C@@H]1CCCN1C(=O)[C@H](CC(C)C)NC(=O)[C@@H](N)Cc1ccccc1)C(C)C)[C@@H](C)CC)C(C)C)[C@@H](C)CC)C(=O)N[C@@H](CC(C)C)C(N)=O` [FLPVILPVIGKLLSGIL] were 25 µM (≈ 44.8 µg/mL) and greater than 50 µM.
Turning to `CC[C@H](C)[C@H](NC(=O)[C@H](CO)NC(=O)[C@H](CC(C)C)NC(=O)[C@H](Cc1ccccc1)NC(=O)CN)C(=O)N[C@@H](CC(C)C)C(=O)N[C@@H](CCCCN)C(=O)N[C@@H](CCCCN)C(=O)N[C@H](C(=O)N[C@@H](CC(C)C)C(=O)N[C@@H](CCCCN)C(=O)N[C@H](C(=O)N[C@@H](CCSC)C(=O)N[C@@H](C)C(=O)N[C@@H](Cc1cnc[nH]1)C(=O)N[C@@H](CCSC)C(=O)N[C@@H](CCCCN)C(N)=O)C(C)C)C(C)C` [GFLSILKKVLKVMAHMK], the MIC came to 5 µM (≈ 9.71 µg/mL) with Staphylococcus aureus, 27.5 µM (≈ 53.4 µg/mL) in the assay with Pseudomonas aeruginosa, 1.8 µM (≈ 3.5 µg/mL) in the assay on Escherichia coli B and 0.9 µM (≈ 1.75 µg/mL) against Bacillus subtilis 168.
Take `CC[C@H](C)[C@H](NC(=O)CN)C(=O)N[C@@H](Cc1c[nH]c2ccccc12)C(=O)N[C@@H](CC(=O)O)C(=O)N[C@H](C(=O)N[C@@H](CC(C)C)C(=O)N[C@@H](CCCCN)C(=O)N[C@@H](CC(N)=O)C(=O)N[C@H](C(=O)NCC(=O)N[C@@H](CCCCN)C(=O)N[C@@H](C)C(=O)N[C@H](C(=O)N[C@@H](CC(C)C)C(=O)NCC(=O)N[C@@H](CCCCN)C(=O)N[C@H](C(=O)N[C@@H](CC(C)C)C(=O)N[C@@H](CCC(=O)O)C(=O)N[C@@H](CC(N)=O)C(=O)N[C@H](C(N)=O)C(C)C)C(C)C)C(C)C)C(C)C)[C@@H](C)O` [GIWDTLKNVGKAVLGKVLENV]: the MIC in assay [1] is no less than 50 µM; in assay [2], 12.5 µM (≈ 28.2 µg/mL).
Take `CC[C@H](C)[C@H](NC(=O)[C@H](Cc1cnc[nH]1)NC(=O)[C@H](CCCCN)NC(=O)[C@H](CC(C)C)NC(=O)[C@H](CC(C)C)NC(=O)[C@H](CO)NC(=O)[C@H](CCCCN)NC(=O)[C@H](Cc1c[nH]c2ccccc12)NC(=O)[C@H](CCCCN)NC(=O)CN)C(=O)N[C@@H](CC(C)C)C(=O)N[C@@H](CCCCN)C(N)=O` [GKWKSLLKHILK]: the MIC against Staphylococcus aureus was 20 µM (≈ 29 µg/mL); in the assay with Pseudomonas aeruginosa, 34.2 µM (≈ 49.6 µg/mL); against Escherichia coli B, 3.7 µM (≈ 5.36 µg/mL); against Bacillus subtilis 168, 1.2 µM (≈ 1.74 µg/mL).
Taken in the same sequence, the figures for `CC[C@H](C)[C@H](NC(=O)[C@H](Cc1cnc[nH]1)NC(=O)[C@H](CCCCN)NC(=O)[C@H](CC(C)C)NC(=O)[C@H](Cc1c[nH]c2ccccc12)NC(=O)[C@H](CO)NC(=O)[C@H](CCSC)NC(=O)[C@H](Cc1c[nH]c2ccccc12)NC(=O)[C@H](CCCCN)NC(=O)CN)C(=O)N[C@@H](CC(C)C)C(=O)N[C@@H](CCCCN)C(N)=O` [GKWMSWLKHILK] were 10.1 µM (≈ 15.4 µg/mL), 13.5 µM (≈ 20.6 µg/mL), 3.9 µM (≈ 5.95 µg/mL) and 1.5 µM (≈ 2.29 µg/mL).
Taken in the same sequence, the figures for `CC[C@H](C)[C@H](NC(=O)[C@H](Cc1cnc[nH]1)NC(=O)[C@H](CCCCN)NC(=O)[C@H](CC(C)C)NC(=O)[C@H](CC(C)C)NC(=O)[C@H](CO)NC(=O)[C@H](CCC(N)=O)NC(=O)[C@H](Cc1c[nH]c2ccccc12)NC(=O)[C@H](CCCCN)NC(=O)CN)C(=O)N[C@@H](CC(C)C)C(=O)N[C@@H](CCCCN)C(N)=O` [GKWQSLLKHILK] were 25 µM (≈ 36.2 µg/mL), 56.7 µM (≈ 82.2 µg/mL), 8 µM (≈ 11.6 µg/mL) and 2.2 µM (≈ 3.19 µg/mL).
`CC[C@H](C)[C@H](NC(=O)[C@H](Cc1c[nH]c2ccccc12)NC(=O)[C@H](CCCCN)NC(=O)[C@H](CC(C)C)NC(=O)[C@@H](NC(=O)[C@H](CCCCN)NC(=O)CNC(=O)[C@@H](NC(=O)[C@H](CCCCN)NC(=O)[C@H](CCCCN)NC(=O)[C@H](CC(C)C)NC(=O)[C@@H](NC(=O)[C@H](CCCCN)NC(=O)[C@H](CCCN=C(N)N)NC(=O)[C@@H](NC(=O)[C@@H](NC(=O)[C@H](CCCCN)NC(=O)[C@H](CCCN=C(N)N)NC(=O)[C@H](CC(C)C)NC(=O)[C@H](CCCN=C(N)N)NC(=O)[C@H](CCCN=C(N)N)NC(=O)[C@H](Cc1ccccc1)NC(=O)[C@@H](NC(=O)CN)C(C)C)C(C)C)[C@@H](C)O)C(C)C)[C@@H](C)CC)C(C)C)C(N)=O` [GVFRRLRKVTRKVLKKIGKVLKWI]: the MIC in [3] was 2 µM (≈ 5.84 µg/mL); in assay [4], 4 µM (≈ 11.7 µg/mL); in [5] it was 4 µM (≈ 11.7 µg/mL); in [2] it was 4 µM (≈ 11.7 µg/mL); in assay [6], 4 µM (≈ 11.7 µg/mL); in the assay on Escherichia coli UB1005 it was 4 µM (≈ 11.7 µg/mL).
Take `CC[C@H](C)[C@H](N)C(=O)N[C@@H](CCCN=C(N)N)C(=O)N[C@H](C(=O)N[C@@H](CCCN=C(N)N)C(=O)N[C@H](C(=O)N[C@@H](CCCN=C(N)N)C(=O)N1CCC[C@H]1C(=O)N[C@H](C(=O)N[C@@H](CCCN=C(N)N)C(=O)N[C@H](C(=O)N[C@@H](CCCN=C(N)N)C(=O)N[C@H](C(=O)N[C@@H](CCCN=C(N)N)C(=O)N1CCC[C@H]1C(=O)O)[C@@H](C)CC)[C@@H](C)CC)[C@@H](C)CC)[C@@H](C)CC)[C@@H](C)CC` [IRIRIRPIRIRIRP]: the MIC in assay [7] was 16 µM (≈ 29.3 µg/mL); in assay [8], 8 µM (≈ 14.6 µg/mL); in assay [3] it was greater than 128 µM; in assay [9] it was 64 µM (≈ 117 µg/mL); in assay [5], 64 µM (≈ 117 µg/mL); in [6], 16 µM (≈ 29.3 µg/mL). The molecule also showed an MIC against Escherichia coli UB1005 of 8 µM (≈ 14.6 µg/mL).
Regarding `CC[C@H](C)[C@H](N)C(=O)N[C@@H](CCCN=C(N)N)C(=O)N[C@H](C(=O)N[C@@H](CCCN=C(N)N)C(=O)N1CCC[C@H]1C(=O)N[C@H](C(=O)N[C@@H](CCCN=C(N)N)C(=O)N[C@H](C(=O)N[C@@H](CCCN=C(N)N)C(=O)N1CCC[C@H]1C(=O)O)[C@@H](C)CC)[C@@H](C)CC)[C@@H](C)CC` [IRIRPIRIRP], the MIC in assay [7], in [8], in assay [3], in assay [4], in assay [9] and in [5] was greater than 128 µM throughout. In addition, the MIC is greater than 128 µM in [2], no less than 128 µM in assay [6] and no less than 128 µM against Escherichia coli UB1005.
As to `CC(C)C[C@H](NC(=O)[C@H](CCCN=C(N)N)NC(=O)[C@H](C)NC(=O)[C@H](C)NC(=O)[C@H](Cc1c[nH]c2ccccc12)NC(=O)CNC(=O)[C@H](CCCN=C(N)N)NC(=O)[C@@H](N)CCCN=C(N)N)C(=O)N[C@@H](Cc1ccccc1)C(=O)N[C@@H](C)C(=O)N[C@@H](C)C(=O)N[C@@H](Cc1ccccc1)C(=O)NCC(=O)N[C@@H](CCCN=C(N)N)C(=O)N[C@@H](CCCN=C(N)N)C(N)=O` [RRGWAARLFAAFGRR], the minimal inhibitory concentration (MIC) against Acinetobacter baumannii was 4.8 µM (≈ 8.59 µg/mL); in assay [10], 30 µM (≈ 53.7 µg/mL); in [5], greater than 30 µM; in the assay with Klebsiella pneumoniae, 1.2 µM (≈ 2.15 µg/mL).
In the case of `CC(C)C[C@H](NC(=O)[C@H](Cc1c[nH]c2ccccc12)NC(=O)[C@H](CCCCN)NC(=O)[C@H](CCCN=C(N)N)NC(=O)[C@@H](NC(=O)[C@H](Cc1c[nH]c2ccccc12)NC(=O)[C@H](CCCCN)NC(=O)[C@H](CCCN=C(N)N)NC(=O)[C@H](CC(C)C)NC(=O)[C@H](Cc1c[nH]c2ccccc12)NC(=O)[C@@H](N)CCCN=C(N)N)[C@@H](C)O)C(=O)N[C@@H](CCCCN)C(N)=O` [RWLRKWTRKWLK], the MIC in assay [3] was 8 µM (≈ 14 µg/mL); in [4], 8 µM (≈ 14 µg/mL); in assay [5], 16 µM (≈ 28.1 µg/mL); in assay [2], 4 µM (≈ 7.02 µg/mL); in [6] it was 16 µM (≈ 28.1 µg/mL); in the assay with Escherichia coli UB1005, 4 µM (≈ 7.02 µg/mL).
